Assay results reported in ChEMBL document CHEMBL1133042, “Convergent synthesis of ribonuclease L-active 2',5'-oligoadenylate-peptide nucleic acids” (Bioorg Med Chem Lett, 2000).

Experiments:
[1] = biological target: T1, 2-5A-dependent ribonuclease (Homo sapiens) (UniProt Q05823); assay: Relative ability of compound to activate Ribonuclease L to cleave poly(U)p[32P]Cp, compared to that of 2-5A standard (Crel=1)
T1 sequence (whole entry): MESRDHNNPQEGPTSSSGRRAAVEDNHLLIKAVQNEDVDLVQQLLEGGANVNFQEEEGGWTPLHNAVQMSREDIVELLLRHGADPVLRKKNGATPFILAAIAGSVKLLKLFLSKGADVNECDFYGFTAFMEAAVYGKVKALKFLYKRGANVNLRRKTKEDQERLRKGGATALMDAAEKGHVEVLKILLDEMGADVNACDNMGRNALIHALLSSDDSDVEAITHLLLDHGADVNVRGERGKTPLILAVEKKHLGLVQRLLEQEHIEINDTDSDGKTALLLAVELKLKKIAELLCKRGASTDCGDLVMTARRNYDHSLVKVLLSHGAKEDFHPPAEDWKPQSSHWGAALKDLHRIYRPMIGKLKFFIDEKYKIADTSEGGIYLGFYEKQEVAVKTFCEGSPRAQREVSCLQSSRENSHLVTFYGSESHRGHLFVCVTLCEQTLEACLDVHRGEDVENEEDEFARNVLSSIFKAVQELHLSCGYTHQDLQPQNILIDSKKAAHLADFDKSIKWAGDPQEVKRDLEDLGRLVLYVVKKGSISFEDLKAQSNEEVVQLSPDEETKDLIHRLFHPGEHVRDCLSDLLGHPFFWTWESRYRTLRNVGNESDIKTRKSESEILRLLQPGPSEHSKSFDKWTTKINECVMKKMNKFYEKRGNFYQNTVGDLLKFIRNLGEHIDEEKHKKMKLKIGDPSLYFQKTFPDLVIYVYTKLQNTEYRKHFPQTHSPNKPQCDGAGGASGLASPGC

[2] = biological target: T1, 2-5A-dependent ribonuclease (Homo sapiens); assay: Relative binding affinity of compound to human recombinant Ribonuclease L, compared to that of 2-5A standard (Crel=1)
[3] = biological target: T1, 2-5A-dependent ribonuclease (Homo sapiens); assay: Relative binding affinity of compound to human recombinant Ribonuclease L, compared to that of 2-5A standard (Crel=1); No binding detected
[4] = biological target: T1, 2-5A-dependent ribonuclease (Homo sapiens); assay: Relative ability of compound to activate Ribonuclease L to cleave poly(U)p[32P]Cp, compared to that of 2-5A standard (Crel=1); No cleavage detected

Crel [1]	Crel [2]	Crel [3]	Crel [4]	Compound
1	1	–	–	Nc1ncnc2c1ncn2[C@@H]1O[C@H](COP(=O)(O)O[C@@H]2[C@H](O)[C@@H](COP(=O)(O)O[C@@H]3[C@H](O)[C@@H](COP(=O)(O)O)O[C@H]3n3cnc4c(N)ncnc43)O[C@H]2n2cnc3c(N)ncnc32)[C@@H](O)[C@H]1O
47.6	0.7	–	–	CO[C@H]1[C@@H](OP(=O)(O)OC[C@H]2O[C@@H](n3cnc4c(N)ncnc43)[C@H](OP(=O)(O)OC[C@@H]3CN(CCOCCOCC(=O)NCCOCCOCC(=O)NCCN(CC(=O)NCCN(CC(=O)NCCN(CC(=O)NCCN(CC(N)=O)C(=O)Cn4cc(C)c(=O)[nH]c4=O)C(=O)Cn4cc(C)c(=O)[nH]c4=O)C(=O)Cn4cc(C)c(=O)[nH]c4=O)C(=O)Cn4cc(C)c(=O)[nH]c4=O)C[C@H](n4cnc5c(N)ncnc54)O3)[C@@H]2O)[C@H](n2cnc3c(N)ncnc32)O[C@@H]1COP(=O)(O)O

Continued, compound first:

Compound	Crel [1]	Crel [2]	Crel [3]	Crel [4]
Cc1cn(CC(=O)N(CCNC(=O)CN(CCNC(=O)CN(CCNC(=O)CN(CCNC(=O)COCCOCCNC(=O)COCCOCCN2CC(COP(=O)(O)O)OC(n3cnc4c(N)ncnc43)C2)C(=O)Cn2cc(C)c(=O)[nH]c2=O)C(=O)Cn2cc(C)c(=O)[nH]c2=O)C(=O)Cn2cc(C)c(=O)[nH]c2=O)CC(N)=O)c(=O)[nH]c1=O (stereo not given)	–	–	No binding	No cleavage
CO[C@H]1[C@@H](OP(=O)(O)OC[C@H]2O[C@@H](n3cnc4c(N)ncnc43)[C@H](OP(=O)(O)OC[C@H]3O[C@@H](n4cnc5c(N)ncnc54)[C@H](OP(=O)(O)OC[C@H]4O[C@@H](n5cnc6c(N)ncnc65)[C@H](OP(=O)(O)O[C@@H]5CN(CCOCCOCC(=O)NCCOCCOCC(=O)NCCN(CC(=O)NCCN(CC(=O)NCCN(CC(=O)NCCN(CC(N)=O)C(=O)Cn6cc(C)c(=O)[nH]c6=O)C(=O)Cn6cc(C)c(=O)[nH]c6=O)C(=O)Cn6cc(C)c(=O)[nH]c6=O)C(=O)Cn6cc(C)c(=O)[nH]c6=O)C[C@H](n6cnc7c(N)ncnc76)O5)[C@@H]4O)[C@@H]3OC)[C@@H]2O)[C@H](n2cnc3c(N)ncnc32)O[C@@H]1COP(=O)(O)O	14	1	–	–
Cc1cn(CC(=O)N(CCNC(=O)CN(CCNC(=O)CN(CCNC(=O)CN(CCNC(=O)COCCOCCNC(=O)COCCOCCN2C[C@@H](COP(=O)(O)O[C@@H]3[C@H](O)[C@@H](COP(=O)(O)O)O[C@H]3n3cnc4c(N)ncnc43)O[C@@H](n3cnc4c(N)ncnc43)C2)C(=O)Cn2cc(C)c(=O)[nH]c2=O)C(=O)Cn2cc(C)c(=O)[nH]c2=O)C(=O)Cn2cc(C)c(=O)[nH]c2=O)CC(N)=O)c(=O)[nH]c1=O	–	–	No binding	No cleavage
